Measurements from patent EP3064205A1, “Therapeutic use of isomeric forms of 2-(4-chlorophenyl)quinolin-4-yl)(piperidin-2-yl)methanol” (Glionova AB, priority 2015, dated 2016).
Where two headings read alike, the source gives them in different places.

Assays:
Assay in all cases: 3D clonogenic assay (PDX)
Type in all cases: cell-based, human
CXF 1103 = settings: CXF 1103, Colorectal; for IC50: Homo sapiens, CXF1103
Experimental: (§1) The anti-tumor efficacy of S1 in the patient-derived tumor xenograft (PDX) tumor panel was assessed, where the efficacy of S1 in PDX tumor panel in the 96-well format, in 10 concentrations in duplicate was performed. Colony formation of tumor cell suspensions in a soft-agar matrix was observed and quantified. The output is IC50 values and dose response-relationships based on number of colonies in control and treatment wells, as identified by an automated image analysis algorithm. Stock solution of S1 was prepared in 100% DMSO at 10 mM concentration (stored at -20°C) and reused for each experiment. Compound final test concentrations: Dilution series ½ i.e.: 50µM, 15, 5, 1.5, 0.5, 0.15, 0.05, 0.015, 0.005 and 0.0015.
(§2) Tumor xenografts (also referred to as patient-derived tumor xenografts) were passaged as subcutaneous xenografts in NMRI nu/nu mice. Tumor xenograft were removed from mice under sterile conditions, mechanically disaggregated and subsequently incubated with an enzyme cocktail consisting of collagenase type IV (41 U/mL), DNase I (125 U/mL), hyaluronidase type III (100 U/mL) and dispase II (1.0 U/mL) in RPMI 1640 medium at 37°C for 60 - 120 minutes. Cells were passed through sieves of 100 µm and 40 µm mesh size and washed with RPMI 1640 medium. The percentage of viable cells was determined in a Neubauer-hemocytometer using trypan blue exclusion. Aliquots of the cells were frozen down, and stored in liquid nitrogen.
(§3) The clonogenic assay test was carried out in 96 well plate format. For each test a frozen aliquot of tumor cells prepared from tumor xenografts was thawed and assay plates were prepared as follows: each test well contained 3 layers of equal volume, 2 layers of semi-solid medium (bottom and top layer), and one layer of medium supernatant, with or without test compound. The bottom layer consisted of 0.05 mL/well Iscove's Modified Dulbecco's Medium (Invitrogen), supplemented with 20% (v/v) fetal calf serum (Sigma), 0.01% (w/v) gentamicin (Invitrogen) and 0.75% (w/v) agar (BD Biosciences). Tumor cells were added to 0.05 mL of the same culture medium supplemented with 0.4% (w/v) agar and plated onto the bottom layer. After 24 h, test compounds were added after serial dilution in DMSO and transfer in cell culture medium, and left on the cells for the duration of the experiment (continuous exposure, 0.05 mL drug overlay). Every dish included six untreated control wells and drug-treated groups in duplicate at 10 concentrations. Cultures were incubated at 37 °C and 7.5% CO2 in a humidified atmosphere for 8 to 13 days and monitored closely for colony growth using an inverted microscope. Within this period, ex vivo tumor growth lead to the formation of colonies with a diameter of >50 µm. At the time of maximum colony formation, counts were performed with an automatic image analysis system. 24 h prior to evaluation, vital colonies were stained with a sterile aqueous solution of 2-(4-iodophenyl)-3-(4-nitrophenyl)-5-phenyltetrazolium chloride (1 mg/mL, 100 µL/well). Sigmoidal concentration-response curves were fitted to the data points obtained for each tumor model using 4 parameter non-linear curve fit (Oncotest Warehouse Software). IC50 values are reported as relative IC50 values, being the concentration of test compound that give a response (inhibition of colony formation/viability) half way between the top and bottom plateau of the sigmoidal concentration-response curve (inflection point of the curve), or as absolute IC50 values, being the concentration of test compound at the intersection of the concentration-response curves with T/C = 50%. For calculation of mean IC50 values the geometric mean was used. Results are presented as mean graph plots or heat maps (individual IC50 values relative to the geometric mean IC50 value) over all cell lines as tested.

CXF 1297 = settings: CXF 1297, Colorectal; for IC50: Homo sapiens
Experimental: as §1, §2, §3

CXF 1729 = settings: CXF 1729, Colorectal; for IC50: Homo sapiens
Experimental: as §1, §2, §3

CXF 243 = settings: CXF 243, Colorectal; for IC50: Homo sapiens
Experimental: as §1, §2, §3

CXF 280 = settings: CXF 280, Colorectal; for IC50: Homo sapiens
Experimental: as §1, §2, §3

GXA 3023 = settings: GXA 3023, Asian Gastric; for IC50: Homo sapiens
Experimental: as §1, §2, §3

GXF 214 = settings: GXF 214, Gastric; for IC50: Homo sapiens
Experimental: as §1, §2, §3

LXFE 397 = settings: LXFE 397, Lung Epidermoid; for IC50: Homo sapiens
Experimental: as §1, §2, §3

MAXF 1322 = settings: MAXF 1322, Breast; for IC50: Homo sapiens
Experimental: as §1, §2, §3

MEXF 274 = settings: MEXF 274, Melanoma; for IC50: Homo sapiens
Experimental: as §1, §2, §3

PAXF 1998 = settings: PAXF 1998, Pancreas; for IC50: Homo sapiens
Experimental: as §1, §2, §3

PXF 537 = settings: PXF 537, Pleuramesothelioma; for IC50: Homo sapiens
Experimental: as §1, §2, §3

RXF 1114 = settings: RXF 1114, Renal; for IC50: Homo sapiens
Experimental: as §1, §2, §3

Question: Which results are given for `O[C@H](c1cc(-c2ccc(Cl)cc2)nc2ccccc12)[C@@H]1CCCCN1` [S1, (R)-(2-(4-chlorophenyl)quinolin-4-yl)((S)-piperidin-2-yl)methanol]?
Answer: b (bottom plateau of concentration-effect curve) (CXF 1103): 47; t (top plateau of concentration-effect curve) (CXF 1103): 99; IC50 (CXF 1103; read-out: abs. IC50): 11.5 µM; IC50 (CXF 1103; read-out: rel. IC50): 6.47 µM; b (bottom plateau of concentration-effect curve) (CXF 1297): 15; t (top plateau of concentration-effect curve) (CXF 1297): 90; IC50 (CXF 1297; read-out: abs. IC50): 6.42 µM; IC50 (CXF 1297; read-out: rel. IC50): 6.37 µM; b (bottom plateau of concentration-effect curve) (CXF 1729): 8; t (top plateau of concentration-effect curve) (CXF 1729): 104; IC50 (CXF 1729; read-out: abs. IC50): 8.87 µM; IC50 (CXF 1729; read-out: rel. IC50): 8.82 µM; b (bottom plateau of concentration-effect curve) (CXF 243): 46; t (top plateau of concentration-effect curve) (CXF 243): 102; IC50 (CXF 243; read-out: abs. IC50): 9.22 µM; IC50 (CXF 243; read-out: rel. IC50): 8.63 µM; b (bottom plateau of concentration-effect curve) (CXF 280): 5; t (top plateau of concentration-effect curve) (CXF 280): 101; IC50 (CXF 280; read-out: abs. IC50): 8.65 µM; IC50 (CXF 280; read-out: rel. IC50): 8.62 µM; b (bottom plateau of concentration-effect curve) (GXA 3023): 30; t (top plateau of concentration-effect curve) (GXA 3023): 90; IC50 (GXA 3023; read-out: abs. IC50): 5.26 µM; IC50 (GXA 3023; read-out: rel. IC50): 5.02 µM; b (bottom plateau of concentration-effect curve) (GXF 214): 6; t (top plateau of concentration-effect curve) (GXF 214): 99; IC50 (GXF 214; read-out: abs. IC50): 4.92 µM; IC50 (GXF 214; read-out: rel. IC50): 4.89 µM; IC50 (LXFE 397; read-out: abs. IC50): 5.14 µM; IC50 (LXFE 397; read-out: rel. IC50): 4.77 µM; b (bottom plateau of concentration-effect curve) (LXFE 397): 35; t (top plateau of concentration-effect curve) (LXFE 397): 100; IC50 (MAXF 1322; read-out: abs. IC50): 4.77 µM; IC50 (MAXF 1322; read-out: rel. IC50): 3.82 µM; b (bottom plateau of concentration-effect curve) (MAXF 1322): 21; t (top plateau of concentration-effect curve) (MAXF 1322): 93; IC50 (MEXF 274; read-out: abs. IC50): 8.84 µM; IC50 (MEXF 274; read-out: rel. IC50): 8.69 µM; b (bottom plateau of concentration-effect curve) (MEXF 274): 17; t (top plateau of concentration-effect curve) (MEXF 274): 103; IC50 (PAXF 1998; read-out: abs. IC50): 8.89 µM; IC50 (PAXF 1998; read-out: rel. IC50): 8.54 µM; b (bottom plateau of concentration-effect curve) (PAXF 1998): 38; t (top plateau of concentration-effect curve) (PAXF 1998): 104; IC50 (PXF 537; read-out: abs. IC50): 8.67 µM; IC50 (PXF 537; read-out: rel. IC50): 8.63 µM; b (bottom plateau of concentration-effect curve) (PXF 537): 24; t (top plateau of concentration-effect curve) (PXF 537): 80; IC50 (RXF 1114; read-out: abs. IC50): 8.18 µM; IC50 (RXF 1114; read-out: rel. IC50): 7.98 µM; b (bottom plateau of concentration-effect curve) (RXF 1114): 30; t (top plateau of concentration-effect curve) (RXF 1114): 94
